pIC50: −log10 of the molar value.
How the values were obtained:
[1] = test system: primary CD34+ cells from AML patients; assay: CFU-E colony-forming unit assay, AML patients; format: cell-based; conditions: Homo sapiens
Experimental: Considering the inhibitory capacity of UCM-13369 on AML cell lines (shown in Figure 3A), the therapeutic potential was assessed in primary CD34+ cells from AML patients. Two ex vivo models were used from AML patients and healthy donors: CD34+ liquid HSC (hematopoietic stem cell) culture as a short-term model and CFU-E (colony-forming unit–erythroid) as a midterm model.
The test compound was diluted in PBS. […]
Primary cells. 1x10^6/mL total mononuclear bone marrow cells (as source of CD34+ HSCs) of healthy donors and AML patients were used. They were cultured using Stem SpanTM supplement with pencillin/streptomycin (500 U/ml), TPO (10 µg/mL), SCF (10 µg/mL), FLT3 (10 µg/mL), IL-6 (10 µg/mL) and IL-3 (10 µg/mL). After 24 h fresh medium was added. After 72 h in maintenance cells were ready to start the assays. All cells wer e maintained at 37 °C in a humidified incubator in an atmosphere of 5% CO2.
Colonospheres, mamospheres and colony formation unit assays. 30.000 cells per well of MCF-7 cells (mamos pheres), HCT-116 cells (colonospheres) and CD34+ cells from patients (colony formation units) were seeded in serum free non- adherent medium or […]
MethoCult (Stem Cell). […]

[2] = test system: primary CD34+ cells from AML patients; assay: Flow cytometry CD34-PE/Annexin V-FITC of primary HSCs from AML patients; format: cell-based, human; conditions: 5μM, representative sample
Experimental: The inhibition of NPM1, especially NPM1 C+ pathway (as shown in Figure 4), by UCM-13369 correlates with the increase of apoptosis observed in treated primary CD34+ cells upon staining with Annexin V (Figure 5C).
CFU-E and CD34+ primary cells with and without UCM-13369 treatment were analyzed. The following monoclonal antibodies were used: CD34-PE, Annexin V-FITC (BD Biosciences). The cells were incubated with antibodies in PBS on ice for 15 min in the dark. The analysis of CD34+ and Annexin V+ subpopulation was carried out in a flow cytometer FACSCalibur (Becton Dickinson, Citometría y Microscopía de Fluorescencia core facility, UCM) and the data were processed using FlowJo_V10 software.

c-Myc = assay: qPCR and Western blot of c-Myc in OCI-AML3 cells; format: cell-based
Description: We next studied the impact of UCM-13369 in the genes and/or expression levels of NPM1 and NPM1 C+ pathway components (Figure 4A), including the positive regulation of c-Myc[34] and the negative regulation of FBXW7 and the pro-apoptotic CASP8.[35] […] The inhibition of NPM1 was also observed in MOLM13 cells expressing WT NPM1 (Figure S1B). […]
quantitative real-time PCR (qPCR), or were sorted using a FACS BD INFL UX cell sorter (BD Biosciences, Franklin Lakes, NJ, USA). All cells were maintained at 37 °C in a humidified incubator in an atmosphere of 5% CO2, and passaged every 2–3 days. […]
Primary cells. […] After 72 h in maintenance cells were ready to start the assays. […]
Colonospheres, mamospheres and colony formation unit assays. […] After 10 days (mamospheres and colonospheres) and 14 days (CFU-E) we quantified t he number of colonies/spheres and number of cell s (CFU-E) by […]
RNA and DNA extraction and quantitative PCR (qPCR). […] Gene expression was studied from the extracted RNA, processed into cDNA to quantify the expression of NPM1 and c-MYC. […]
The relative amount of targets was determined by the comparative Ct method.
Western blot. […] Lysates wer e cl ear ed by centrifugation (14,000g, 4 °C, 30 min), protein concentration determined by Bradford […]
Proteomic analysis. […] Follows the image of a Venn diagram showing the number of proteins detected in each of the pop ulations and the proteins that converg e […]

HCT-116 = assay: Cytotoxic effect in colon tumor cell line (MTT); conditions: Homo sapiens, HCT-116, read-out: Viability (%) HCT-116, @5 µM (footnote d)
Experimental: The cytotoxic effect was determined in breast (MCF-7) and colon (HCT-116) tumor cell lines using MTT assays.
Cells were seeded at 3 × 10^4 cells/mL in 96-well plates. The test compound was diluted in PBS. […] Viability was evaluated by MTT or WST-1 and dose/response curves were performed.

## COc1ccc(C2Cc3[nH]c4ccccc4c3C(CCNCC3CC3)C2N)cc1 (stereo not shown) [4b, 4-{2-[(Cyclopropylmethyl)amino]ethyl}-2-(4-methoxyphenyl)-2,3,4,9-tetrahydro-1H-carbazol-3-amine]
[1]
  pIC50: 6.52
[2]
  CD34+/AnnexinV+: 43.09%
c-Myc
  c-Myc levels (in words): reduced levels
HCT-116
  viability at 5 µM: 70%

From PMC11134387, “Cancer-Stem-Cell Phenotype-Guided Discovery of a Microbiota-Inspired Synthetic Compound Targeting NPM1 for Leukemia” (JACS Au, 2024)
